Values quoted from earlier work as cited in publication PMC12691659 (Antimicrobial Agents and Chemotherapy, 2025).

Key:
[1] = human, in vivo; cited from earlier work
[2] = in vivo; cited from earlier work
[3] = in vivo, cited from earlier work
Source text: Its retrospective, uncontrolled design limits the ability to establish causal relationships. The adherence to co-prescribing treatments could not be verified. […] Overexposure definition was based on Cmin rather than AUC, because the latter is still not widely available in routine TDM.

[4] = human, in vivo; cited from earlier work; remark: listed apart in the source
P-glycoprotein (P-gp) = details: cited from earlier work

For `CCCCCCCCCC(=O)N[C@@H](Cc1c[nH]c2ccccc12)C(=O)N[C@H](CC(N)=O)C(=O)N[C@@H](CC(=O)O)C(=O)N[C@@H]1C(=O)NCC(=O)N[C@@H](CCCN)C(=O)N[C@@H](CC(=O)O)C(=O)N[C@H](C)C(=O)N[C@@H](CC(=O)O)C(=O)NCC(=O)N[C@H](CO)C(=O)N[C@@H]([C@H](C)CC(=O)O)C(=O)N[C@@H](CC(=O)c2ccccc2N)C(=O)O[C@@H]1C` [daptomycin], the “Increase of AUC in morbidly obese subjects” value [1] is listed as 60%, the “Increase of Cmax in morbidly obese subjects” value [1] is listed as 60% and the “Dose excreted unchanged by the kidneys” value [2] is listed as 78%. The “Cmin associated with an increased risk of CPK elevation” value ([3]; 6 mg/kg) was over 24300 ng/mL, the “AUC associated with increased risk of adverse events” value [3] was over 939 µg·h/mL and the “Cmin associated with increased risk of adverse events” value [3] was over 24000 ng/mL. For the same compound, the “CLDAP, population final estimate” value [4] was 0.365 L/h, the “Q, population final estimate” value [4] was 0.752 L/h and the “V1, population final estimate” value [4] was 3.59 L. For the same compound, the “V2, population final estimate” value [4] was 4.71 L, the γCL [4] was 0.193 and the γV1 [4] was 0.24. For the same compound, the “θ1 (CL, CLCR)” value [4] was 0.43, the “θ2 (CL, Sex)” value [4] was 0.232 and the “θ3 (V1, Age)” value [4] was 0.263. For the same compound, the “θ4 (V1, WT)” value [4] was 0.603, the “θ6 (V1, Sex)” value [4] was 0.117 and the ωCL [4] was 0.196. For the same compound, the ωQ [4] was 1.13, the ωV1 [4] was 0.123 and the ωV2 [4] was 0.29.
In the case of `CCCc1nc2c(C)cc(-c3nc4ccccc4n3C)cc2n1Cc1ccc(-c2ccccc2C(=O)O)cc1` [telmisartan], the “Inhibition of the transport of digoxin, a known P-gp substrate” value (P-glycoprotein (P-gp)) is listed as “inhibit the transport of digoxin”.
For `CCCCC1=NC2(CCCC2)C(=O)N1Cc1ccc(-c2ccccc2-c2nnn[nH]2)cc1` [irbesartan], the “Inhibition of the transport of digoxin, a known P-gp substrate” value (P-glycoprotein (P-gp)) is given as “inhibit the transport of digoxin”, the P-glycoprotein substrate status (P-glycoprotein (P-gp); renal efflux transporter) is given as “substrate of P-glycoprotein” and the “Dose eliminated unchanged in the urine” value [2] is given as “Up to 20%”.
